Laboratory results from patent US8063090B2, “Mineralocorticoid receptor modulators” (Merck Sharp & Dohme Corp., priority 2007, dated 2011).

molecular target: T1, recombinant rhesus mineralocorticoid receptor (Macaca mulatta, UniProt A0A5F8ATS5); assay: Mineralocorticoid receptor radioligand ([3H]-aldosterone) filter binding assay; conditions: displacement of [3H]-aldosterone, insect cell lysate, 20° C., read-out: Mineralocorticoid receptor binding affinity Ki
T1 construct: made in house; host or cells: insect cells infected with recombinant baculovirus; clarified cell lysate used
T1 sequence (A0A5F8ATS5 1-984): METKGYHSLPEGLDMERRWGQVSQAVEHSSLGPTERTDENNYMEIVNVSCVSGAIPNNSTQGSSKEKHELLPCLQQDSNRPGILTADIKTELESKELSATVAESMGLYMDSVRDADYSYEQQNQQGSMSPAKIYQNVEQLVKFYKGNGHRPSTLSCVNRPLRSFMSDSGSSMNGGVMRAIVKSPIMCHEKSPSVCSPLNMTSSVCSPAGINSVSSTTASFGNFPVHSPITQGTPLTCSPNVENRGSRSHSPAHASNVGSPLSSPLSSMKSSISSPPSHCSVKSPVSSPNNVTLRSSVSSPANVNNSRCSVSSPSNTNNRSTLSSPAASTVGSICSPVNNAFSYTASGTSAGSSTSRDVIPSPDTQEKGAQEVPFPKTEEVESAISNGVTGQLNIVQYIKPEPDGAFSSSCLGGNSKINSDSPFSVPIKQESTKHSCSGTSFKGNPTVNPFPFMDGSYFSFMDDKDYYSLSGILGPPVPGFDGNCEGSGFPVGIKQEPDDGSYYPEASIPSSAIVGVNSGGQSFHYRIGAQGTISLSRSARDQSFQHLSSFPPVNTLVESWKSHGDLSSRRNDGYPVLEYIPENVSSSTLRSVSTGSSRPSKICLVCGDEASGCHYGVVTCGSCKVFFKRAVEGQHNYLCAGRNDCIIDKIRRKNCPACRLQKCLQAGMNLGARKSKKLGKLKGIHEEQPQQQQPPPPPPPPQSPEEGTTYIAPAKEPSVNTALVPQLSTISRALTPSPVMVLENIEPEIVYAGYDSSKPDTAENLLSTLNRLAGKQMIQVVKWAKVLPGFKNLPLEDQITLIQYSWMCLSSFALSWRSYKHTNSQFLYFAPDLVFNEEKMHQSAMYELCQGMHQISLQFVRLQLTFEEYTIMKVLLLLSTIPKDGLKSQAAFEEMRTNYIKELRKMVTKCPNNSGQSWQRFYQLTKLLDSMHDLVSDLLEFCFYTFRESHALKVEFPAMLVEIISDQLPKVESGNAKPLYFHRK
Protocol: Measurement of Mineralocorticoid Receptor Binding Affinity
The binding affinity of compounds for the mineralocorticoid receptor was determined by measuring their ability to prevent binding of radiolabeled aldosterone to recombinant rhesus mineralocorticoid receptor in a traditional filter binding assay protocol.
Rhesus mineralocorticoid receptor cDNA was cloned from a cDNA library using and used to prepare a recombinant baculovirus encoding the rhesus mineralocorticoid receptor coding sequence by standard molecular biological and cell biological methods. […] Cells were collected and lysed. The lysates were clarified by centrifugation and stored at −80 C until use in the radioligand binding assay.
The assays were carried out in 20 mM Hepes, 10 mM Na2MoO4, 10 mM 2-mercaptoethanol, 157 mM sucrose, and 3.7 mM CHAPS. [^3H]-Aldosterone (1 mCi/ml, 70-100 Ci/mmol) was purchased from Perkin Elmer (NET419). Test compounds were dissolved in DMSO and diluted in DMSO to 50 times the desired final concentrations for 3-fold serial dilution dose response curves. A working stock solution of [^3H]-aldosterone was prepared by dilution of the commercial stock to 0.083 μM in assay buffer. The insect cell lysate containing rhesus mineralocorticoid receptor was thawed and diluted to 0.7 mg protein/mL. Assay were started by combining 20 μL of test compound solution, 920 μL of diluted insect cell lysate, and 60 μL of [^3H]-aldosterone working solution in 2-mL 96-well polypropylene square well plates (USA Scientific) at 20° C. The mixture was incubated for 3 hr with continuous agitation on a platform shaker. The mixture was then filtered through 96-well GF/B filter plates (Packard) that had been previously treated with a solution of polyethylenimine (Sigma, P-3143). The filter plate was washed 3 times with 0.5 mL of 50 mM Tris-HCl, pH 7.4 and then dried overnight at 37° C. in a vacuum oven. The bottom of the plate was sealed and 40 μL of Microscint-20 (Packard, 6013621) was added to each well before counting radioactivity with a Topcount plate reader. Non-specific radioligand binding was determined by adding non-radiolabeled aldosterone (0.5 mM in DMSO) to the assay mixture to a final concentration of 10 μM in place of test compound. IC50 and Ki values were determined using a four parameter logistic fit using a customized assay data analyzer software package.

Compound	Ki [nM]
CC(c1ccccc1)n1ccnc1C(c1ccccc1)c1ccccc1 (racemic) [Compound 1-5, 2-(diphenylmethyl)-1-(1-phenylethyl)-1H-imidazole]	2860
CC(c1cccc(I)c1)n1ccnc1C(c1ccccc1)c1ccccc1 (stereo not shown) [Compound 1-6, 2-(diphenylmethyl)-1-[1-(3-iodophenyl)ethyl]-1H-imidazole]	2600
COc1ccc(Cn2ccnc2C(c2ccccc2)c2ccccc2)cc1 [Compound 1-7, 2-(diphenylmethyl)-1-(4-methoxybenzyl)-1H-imidazole]	2650
FC(F)(F)c1cccc(Cn2ccnc2C(c2ccccc2)c2ccccc2)c1 [Compound 1-8, 2-(diphenylmethyl)-1-[3-(trifluoromethyl)benzyl]-1H-imidazole]	410
CC(c1cc(C(F)(F)F)cc(C(F)(F)F)c1)n1ccnc1C(c1ccccc1)c1ccccc1 (stereo not shown) [Compound 1-10, 1-{1-[3,5-bis(trifluoromethyl)phenyl]ethyl}-2-(diphenylmethyl)-1H-imidazole]	1090
FC(F)(F)c1cc(Cn2ccnc2C(c2ccccc2)c2ccccc2)cc(C(F)(F)F)c1 [Compound 1-11, 1-[3,5-bis(trifluoromethyl)benzyl]-2-(diphenylmethyl)-1H-imidazole]	1350
Ic1cccc(Cn2ccnc2C(c2ccccc2)c2ccccc2)c1 [Compound 1-12, 2-(diphenylmethyl)-1-(3-iodobenzyl)-1H-imidazole]	287
Cc1cccc(Cn2ccnc2C(c2ccccc2)c2ccccc2)c1 [Compound 1-13, 2-(diphenylmethyl)-1-(3-methylbenzyl)-1H-imidazole]	134
O=[N+]([O-])c1cccc(Cn2ccnc2C(c2ccccc2)c2ccccc2)c1 [Compound 1-14, 2-(diphenylmethyl)-1-(3-nitrobenzyl)-1H-imidazole]	587
Nc1cccc(Cn2ccnc2C(c2ccccc2)c2ccccc2)c1 [Compound 1-15, 3-{[2-(diphenylmethyl)-1H-imidazol-1-yl]methyl}aniline]	633
CC(c1cc(Cl)cc(Cl)c1)n1ccnc1C(c1ccccc1)c1ccccc1 (stereo not shown) [Compound 1-16, 1-[1-(3,5-dichlorophenyl)ethyl]-2-(diphenylmethyl)-1H-imidazole]	298
COc1ccc(Br)cc1Cn1ccnc1C(c1ccccc1)c1ccccc1 [Compound 1-17, 1-(5-bromo-2-methoxybenzyl)-2-(diphenylmethyl)-1H-imidazole]	499
Clc1cc2c(cc1Cn1ccnc1C(c1ccccc1)c1ccccc1)OCO2 [Compound 1-18, 1-[(6-chloro-1,3-benzodioxol-5-yl)methyl]-2-(diphenylmethyl)-1H-imidazole]	1120
COc1cc(OC)cc(C(=O)Nc2cccc(Cn3ccnc3C(c3ccccc3)c3ccccc3)c2)c1 [Compound 1-19, N-(3-{[2-(diphenylmethyl)-1H-imidazol-1-yl]methyl}phenyl)-3,5-dimethoxybenzamide]	302
O=C(Nc1cccc(Cn2ccnc2C(c2ccccc2)c2ccccc2)c1)c1cc(Cl)cc(Cl)c1 [Compound 1-20, 3,5-dichloro-N-(3-{[2-(diphenylmethyl)-1H-imidazol-1-yl]methyl}phenyl)benzamide]	162
c1ccc(Cn2c(C(c3ccccc3)c3ccccc3)nc3ccccc32)cc1 [Compound 2-3, 1-benzyl-2-(diphenylmethyl)-1H-benzimidazole]	964
CC(c1ccccc1)n1c(C(c2ccccc2)c2ccccc2)nc2ccccc21 (stereo not shown) [Compound 2-4, 2-(diphenylmethyl)-1-(1-phenylethyl)-1H-benzimidazole]	2090

test system: not given; assay: not given; conditions: in combination with standard CHF therapy, patients suffering from advanced CHF; cited from earlier work

Compound	reduced cardiac related mortality [%]	reduced frequency of hospitalization [%]
CC(=O)S[C@@H]1CC2=CC(=O)CC[C@]2(C)[C@H]2CC[C@@]3(C)[C@@H](CC[C@@]34CCC(=O)O4)[C@H]12 [spironolactone]	30	33
